According to patent publication US6610677B2, “Pyrazole compounds useful as protein kinase inhibitors” (Vertex Pharmaceuticals Incorporated, priority 2000, dated 2003):
Read-outs that look alike come from different tables or passages of the source.

Tests used:
human Src kinase = target: T1, human Src kinase (Homo sapiens, UniProt P12931); assay: SRC inhibition assay (radioactivity-based or spectrophotometric assay); assay type: biochemical; settings: assay A or B not specified
T1 construct: full length recombinant human Src kinase; purchased Upstate Biotechnology 14-117; host or cells: baculo viral cells (baculovirus expression system)
T1 sequence (P12931 whole entry): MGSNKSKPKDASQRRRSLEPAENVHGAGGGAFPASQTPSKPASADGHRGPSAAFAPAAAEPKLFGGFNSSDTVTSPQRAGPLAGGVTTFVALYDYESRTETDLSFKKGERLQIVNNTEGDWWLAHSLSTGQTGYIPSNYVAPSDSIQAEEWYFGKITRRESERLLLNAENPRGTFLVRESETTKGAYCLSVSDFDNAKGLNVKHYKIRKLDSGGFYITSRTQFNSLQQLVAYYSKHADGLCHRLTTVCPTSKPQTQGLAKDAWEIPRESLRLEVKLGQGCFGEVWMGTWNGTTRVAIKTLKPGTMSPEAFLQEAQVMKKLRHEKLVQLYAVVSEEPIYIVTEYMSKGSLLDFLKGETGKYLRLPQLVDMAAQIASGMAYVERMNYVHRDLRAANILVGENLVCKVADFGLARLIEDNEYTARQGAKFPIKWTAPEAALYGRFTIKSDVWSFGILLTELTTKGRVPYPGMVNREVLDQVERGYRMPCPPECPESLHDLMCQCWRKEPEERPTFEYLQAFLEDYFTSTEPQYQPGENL
Experimental: The compounds were evaluated as inhibitors of human Src kinase using either a radioactivity-based assay or spectrophotometric assay. The compounds were assayed as inhibitors of full length recombinant human Src kinase (from Upstate Biotechnology, cat. no. 14-117) expressed and purified from baculo viral cells. […] P-0275). […] In a typical assay, all the reaction components with the exception of ATP were pre-mixed and aliquoted into assay plate wells. Inhibitors dissolved in DMSO were added to the wells to give a final DMSO concentration of 2.5%. The assay plate was incubated at 30° C. for 10 min before initiating the reaction with ^33P-ATP. After 20 min of reaction, the reactions were quenched with 150 μl of 10% trichloroacetic acid (TCA) containing 20 mM Na3PO4. The quenched samples were then transferred to a 96-well filter plate (Whatman, UNI-Filter GF/F Glass Fiber Filter, cat no. 7700-3310) installed on a filter plate vacuum manifold. Filter plates were washed four times with 10% TCA containing 20 mM Na3PO4 and then 4 times with methanol. 200 μl of scintillation fluid was then added to each well. The plates were sealed and the amount of radioactivity associated with the filters was quantified on a TopCount scintillation counter. The radioactivity incorporated was plotted as a function of the inhibitor concentration. The data was fitted to a competitive inhibition kinetics model to get the Ki for the compound. The ADP produced from ATP by the human recombinant Src kinase-catalyzed phosphorylation of poly Glu-Tyr substrate was quanitified using a coupled enzyme assay (Fox et al (1998) Protein Sci 7, 2249). In this assay one molecule of NADH is oxidised to NAD for every molecule of ADP produced in the kinase reaction. The disappearance of NADH can be conveniently followed at 340 nm. […] In a typical assay, all the reaction components with the exception of ATP were pre-mixed and aliquoted into assay plate wells. Inhibitors dissolved in DMSO were added to the wells to give a final DMSO concentration of 2.5%. […] The absorbance change at 340 nm with time, the rate of the reaction, was monitored on a molecular devices plate reader. The data of rate as a function of the inhibitor concentration was fitted to compettive inhibition kinetics model to get the Ki for the compound.

GSK-3β (AA 1-420) = target: T2, GSK-3β (AA 1-420) (Homo sapiens, UniProt P49841); assay: Ki determination for the inhibition of GSK-3 (coupled enzyme system); assay type: biochemical; settings: 20 μM ATP, 300 μM peptide, 20 nM GSK-3β, 30° C
T2 construct: GSK-3β (AA 1-420)
T2 sequence (P49841 whole entry, the tested form may be a part): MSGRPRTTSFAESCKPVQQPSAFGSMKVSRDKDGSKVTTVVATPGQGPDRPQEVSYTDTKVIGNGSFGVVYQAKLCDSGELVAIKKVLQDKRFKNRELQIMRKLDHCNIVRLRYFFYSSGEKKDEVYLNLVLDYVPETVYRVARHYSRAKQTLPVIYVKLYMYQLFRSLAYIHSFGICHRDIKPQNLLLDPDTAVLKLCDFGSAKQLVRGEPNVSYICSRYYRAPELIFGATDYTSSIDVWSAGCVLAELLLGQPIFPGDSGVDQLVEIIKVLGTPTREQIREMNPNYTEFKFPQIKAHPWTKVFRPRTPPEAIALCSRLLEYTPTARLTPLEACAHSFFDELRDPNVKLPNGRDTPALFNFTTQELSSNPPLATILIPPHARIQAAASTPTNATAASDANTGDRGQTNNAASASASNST
Procedure, shortened: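 Ki values come from reaction rates over 10 min at 30 °C as a function of inhibitor concentration (12-point titration, 0.002–30 μM, 10 min preincubation). GSK-3β (AA 1-420, 20 nM) phosphorylated 300 μM primed peptide with 20 μM ATP; ADP formation followed by coupled NADH oxidation, pH 7.5.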

Aurora-2 = target: T3, Aurora-2 (Homo sapiens, UniProt O14965); assay: Ki determination for the inhibition of Aurora-2 (coupled enzyme assay); assay type: biochemical; settings: 70 nM Aurora-2, peptide LRRASLG, 30° C
T3 sequence (O14965 1-403): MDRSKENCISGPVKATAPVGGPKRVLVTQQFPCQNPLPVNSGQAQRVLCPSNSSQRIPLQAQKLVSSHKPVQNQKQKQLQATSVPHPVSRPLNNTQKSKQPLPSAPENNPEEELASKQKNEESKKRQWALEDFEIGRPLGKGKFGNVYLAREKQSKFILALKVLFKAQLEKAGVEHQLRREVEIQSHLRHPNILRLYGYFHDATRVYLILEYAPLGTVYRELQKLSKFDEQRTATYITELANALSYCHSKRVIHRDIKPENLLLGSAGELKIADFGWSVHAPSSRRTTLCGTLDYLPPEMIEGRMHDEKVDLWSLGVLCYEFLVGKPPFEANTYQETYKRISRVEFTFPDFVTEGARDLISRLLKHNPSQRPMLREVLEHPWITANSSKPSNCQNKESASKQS
Procedure, shortened: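 Ki came from reaction rates plotted against inhibitor concentration, with rates taken as A340 decrease over 5 min at 30° C. Enzyme (70 nM final) was added after 10 min compound preincubation; stock buffer held […], 800 μM LRRASLG, PK/LDH coupling, pH 7.5.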

Structure (SMILES)	Ki (human Src kinase; read-out: Ki value on SRC) [µM]	Ki (GSK-3β (AA 1-420)) [µM]	Ki (Aurora-2) [µM]	melting point [°C]	Ki (human Src kinase; read-out: Ki value for SRC) [µM]
Cc1cc(Nc2nc(-c3ccccc3)nc3ccccc23)[nH]n1 [III-31, (5-Methyl-2H-pyrazol-3-yl)-(2-phenyl-quinazolin-4-yl)-amine]	< 0.1	< 0.1	< 0.1	–	–
Cc1cc(Nc2nc(-c3ccc(I)cc3)nc3ccccc23)[nH]n1 [III-32, [2-(4-Iodophenyl)-quinazolin-4-yl]-(5-methyl-2H-pyrazol-3-yl)-amine]	< 0.1	–	< 0.1	–	–
Cc1cc(Nc2nc(-c3ccc(Cl)c(Cl)c3)nc3ccccc23)[nH]n1 [III-33, [2-(3,4-Dichlorophenyl)-quinazolin-4-yl]-(5-methyl-2H-pyrazol-3-yl)-amine]	< 0.1	< 0.1	< 0.1	274	–
Cc1cc(Nc2nc(-c3cccc(I)c3)nc3ccccc23)[nH]n1 [III-38, [2-(3-Iodophenyl)-quinazolin-4-yl]-(5-methyl-2H-pyrazol-3-yl)-amine]	< 0.1	< 0.1	< 0.1	234 to 235	–
Cc1cc(Nc2nc(-c3ccc(N(C)C)cc3)nc3ccccc23)[nH]n1 [III-44, [2-(4-Dimethylaminophenyl)-quinazolin-4-yl]-(5-methyl-2H-pyrazol-3-yl)-amine]	< 0.1	0.1 to 1	< 0.1	–	–
COc1cccc(-c2nc(Nc3cc(C)n[nH]3)c3ccccc3n2)c1 [III-45, [2-(3-Methoxyphenyl)-quinazolin-4-yl]-(5-methyl-2H-pyrazol-3-yl)-amine]	< 0.1	< 0.1	< 0.1	226	–
Cc1cc(Nc2nc(-c3ccc(-c4ccccc4)cc3)nc3ccccc23)[nH]n1 [III-47, (2-Biphenyl-4-yl-quinazolin-4-yl)-(5-methyl-2H-pyrazol-3-yl)-amine]	< 0.1	< 0.1	< 0.1	–	–
C#Cc1ccc(-c2nc(Nc3cc(C)n[nH]3)c3ccccc3n2)cc1 [III-48, [2-(4-Ethynylphenyl)-quinazolin-4-yl]-(5-methyl-2H-pyrazol-3-yl)-amine]	< 0.1	< 0.1	< 0.1	–	–
NCCCc1cc(Nc2nc(-c3ccccc3)nc3ccccc23)[nH]n1 [III-79, [5-(3-Aminoprop-1-yl)-2H-pyrazol-3-yl]-(2-phenyl-quinazolin-4-yl)-amine]	–	–	1 to 20	205 to 207	1 to 6
c1ccc(-c2nc(Nc3ncn[nH]3)c3ccccc3n2)cc1 [IX-154, (2-Phenyl-quinazolin-4-yl)-(2H-[1,2,4]triazol-3-yl)-amine]	–	0.1 to 1	1 to 20	266 to 267	–

The remaining lines, values ahead:

Ki (human Src kinase; read-out: Ki value on SRC) [µM]	Ki (GSK-3β (AA 1-420)) [µM]	Ki (Aurora-2) [µM]	melting point [°C]	Ki (human Src kinase; read-out: Ki value for SRC) [µM]	Structure (SMILES)
< 0.1	< 0.1	< 0.1	262 to 265	–	Cc1cc(Nc2nc(-c3ccc(Br)cc3)nc3ccccc23)[nH]n1 [III-34, [2-(4-Bromophenyl)-quinazolin-4-yl]-(5-methyl-2H-pyrazol-3-yl)-amine]
< 0.1	< 0.1	< 0.1	> 300	–	Cc1cc(Nc2nc(-c3ccc(Cl)cc3)nc3ccccc23)[nH]n1 [III-35, [2-(4-Chlorophenyl)-quinazolin-4-yl]-(5-methyl-2H-pyrazol-3-yl)-amine]
< 0.1	< 0.1	< 0.1	263	–	Cc1cc(Nc2nc(-c3ccc(C#N)cc3)nc3ccccc23)[nH]n1 [III-37, [2-(4-Cyanophenyl)-quinazolin-4-yl]-(5-methyl-2H-pyrazol-3-yl)-amine]
< 0.1	< 0.1	< 0.1	229 to 231	–	CCSc1ccc(-c2nc(Nc3cc(C)n[nH]3)c3ccccc3n2)cc1 [III-39, [2-(4-Ethylsulfanylphenyl)-quinazolin-4-yl]-(5-methyl-2H-pyrazol-3-yl)-amine]
< 0.1	< 0.1	< 0.1	–	–	Clc1ccc(-c2nc(Nc3cc(C4CC4)n[nH]3)c3ccccc3n2)cc1 [III-42, [2-(4-Chlorophenyl)-quinazolin-4-yl]-(5-cyclopropyl-2H-pyrazol-3-yl)-amine]
